Experimental findings from PMC10945332, “Precision peptide theranostics: developing N- to C-terminus optimized theranostics targeting cholecystokinin-2 receptor” (Theranostics, 2024) are described below.

The format of data set [1] is in vitro ADME, mouse. The method, then:
Metabolic stability is an important determinant of the efficacy of peptide radiopharmaceuticals and their progression as promising theranostic candidates. In vitro, metabolic degradation through hepatic and renal enzymes can be assessed by utilizing liver and kidney tissue homogenates. Radiolabeled peptides [^68Ga]Ga-DOTA-GA4, and D-Ala substituted variants [^68Ga]Ga-DOTA-GA7, [^68Ga]Ga-DOTA-GA11-GA13 were incubated in liver and kidney mouse homogenates, in human serum at 37°C, and in HEPES buffer (pH 7.4) as a negative control. Following a time course experiment, the metabolites were analyzed using HPLC to quantify the % breakdown of the respective parent peptide. […]
To assess the stability of 68Ga radiolabeled peptides against enzymatic degradation, duplicate samples (750-900 pmol/mL, 2-5MBq) were incubated at 37 ℃ with pooled human serum, 15% […]
mouse kidney homogenate, 30% mouse liver homogenate or 20 mM HEPES, pH 7.3 (control).
Human blood was collected, and serum prepared using SSTII advance vacutainer tubes according to the manufacturer’s instructions (Becton Dickinson, New Jersey, USA). Mouse kidney and liver homogenates were prepared by washing the tissues in ice-cold HEPES buffer, pH 7.3 and placing them in pre-chilled tubes containing HEPES buffer and 2.38 mm metal beads (Mo-Bio Laboratories, Hilden, Germany). Tissues were homogenised using the PowerLyzer24 homogeniser (Qiagen, Hilden, Germany) according to the manufacturer’s instructions. 68Ga radiolabeled peptides were then incubated with the various lysates at 37 ℃ and samples were collected at 15, 30, 60 and 90 min. Reactions were terminated by addition of an equal volume of acetonitrile and centrifugation for 2 min at 15,000 rpm. Supernatants were diluted in water before being analysed by HPLC using a Kinetex C18 XB column (5µm

The format of data set [2] is physicochemical. Here is the method:
Lipophilicity, expressed as the octanol-water partition coefficient, constitutes an important property in drug action, influencing both pharmacokinetic and pharmacodynamics processes. The distribution coefficient (LogD7.4) of [^68Ga]Ga-DOTA-peptides was determined by measuring radioactivity distribution in the aqueous phase (phosphate buffer pH7.4) and the organic phase (n-octanol). […]
To determine the distribution coefficient (logD 7.4), 68Ga radiolabeled peptides [68Ga]Ga-DOTA-GA4, [68Ga]Ga-DOTA-GA7, and [68Ga]Ga-DOTA-GA11–GA13 were diluted to approximately 20 pmol/mL in PBS (pH 7.4) and an equal volume of n-octanol was added. The mixture was vortexed vigorously for 10 cycles of 1 min at room temperature before being centrifuged for 6 min to separate the two phases. Equal volumes from each phase were aliquoted into individual counting tubes and analysed for 1 min using the Perkin Elmer 2480 Wizard2™ gamma counter (PerkinElmer, Massachusetts, USA). The distribution coefficient was calculated using the following equation LogD = […]. […]

The nature of data set [3]: in vivo. As to conditions: female, NSG, mouse, iv, total radioactivity; for SUV at 1 h / SUV at 2 h: SUVmax. The method, then:
(§1) In order to assess these promising ligands as potential theranostics, the library of [^68Ga]Ga-DOTA-peptides was evaluated using static small animal PET imaging and quantifying biodistribution studies. This study was performed to investigate tumor uptake as well as the accumulation of radioligands in other organs. Mice bearing A431-CCK2R tumors were imaged at 1- and 2 hours post tracer injection, and tracer biodistribution was evaluated at the 1 hour and 2.5 hour time points to quantify tumor uptake and retention. […]
(§2) Small Animal PET Imaging and Biodistribution Studies
(§3) Female NSG mice (age 11-14 weeks) were sourced from Animal Resources Centre, (Canning Vale, Western Australia) and were inoculated subcutaneously on the right flank with 1-3 x 106 […]
(§4) A431-CCK2R cells in PBS:Matrigel (1:1). […]
(§5) Mice were assigned to imaging and/or biodistribution groups (tumour volumes: 119-327 mm3).
(§6) The respective 68Ga labelled tracer (1.63–3.81 MBq, 170µL, 13.7–14.2 pmoles) containing vehicle solution (75µL, DMSO:Tween 80: water, 2:2:6 v/v/v) was then administered to mice intravenously via tail vein injection. Three mice were euthanized for biodistribution 1 hour post injection (n=3) and selected tissues were excised, weighed, and counted using a Capintec (Captus 4000e) gamma counter. Three mice were anaesthetised using 1.5% isoflurane and imaged at 1 hour (n=3) and 2 hours (n=3) with a G8 Small Animal PET/CT scanner (Perkin […]
(§7) Elmer/Sofie Biosciences). A 10 min static PET scan was acquired, followed immediately by a CT scan (Supplementary Data, pS51–S55). PET images were acquired using the G8 acquisition engine software and reconstructed using a 3D maximal likelihood and expectation maximization (ML-EM) algorithm. PET images were analysed using VivoQuant software, version 3.0 (inviCRO Imaging Services and Software) to quantify maximum standardised uptake value in regions of interest (SUVmax). Background regions for imaging experiments were calculated by quantitating mean standardised uptake value (SUVmean) of the abdomen and gut region. The region of interest was selected due to low uptake in abdomen/gut during imaging. After imaging the 2-hour time point, mice organs were harvested for biodistribution […]
(§8) For blocking CCK2R binding a solution of N-[(3R)-2,3-Dihydro-1-[2-(2-methylphenyl)-2-oxoethyl]-2-oxo-5-phenyl-1H-1,4-benzodiazepin-3-yl]-N′-(3-methylphenyl)-urea (YM022; Sigma Aldrich) was used. YM022 (75µL of a 1 mg/ml solution constituting DMSO:Tween 80: water, 2:2:6 v/v/v) was added to the respective 68Ga labelled tracer (1.41–3.61 MBq, 100 µL, 13.7–14.2 pmoles) and this mixture ([…]) was administered in three mice intravenously via tail vein injection and organs harvested at 1 hour post injection for biodistribution analysis, as above.
(§9) All animal experiments were performed with the approval of the Peter MacCallum Cancer Centre Animal Experimentation Ethics Committee and in accordance with the Australian code for the care and use of animals for scientific purposes, 8th Edition, 2013 (AEEC Approval

The conditions of data set [4]: mouse, in vivo. The method, then:
as §1, §2, §3, §4, §5, §6, §7, §8, §9

The mark [5] stands for this setting: 3 mg/kg, Uptake in A431-CCK2R Tumors, 1 hr Blocked.
Setting [6] is: Uptake in A431-CCK2R Tumors, 1 hr.

What is called logD is lipophilicity at a set pH, counting ionised and neutral species. High values mean higher lipophilicity, low ones lower lipophilicity. Broadly, the tissue uptake is the percentage of the injected dose found per gram of tissue. Low values mean little accumulation, high ones strong accumulation. Usually half-life stands for the time in which the quantity being followed falls by half. A low value points to fast loss.

Like-named read-outs stand apart in the source and are kept apart here. Where a SMILES comes first, the peptide text is derived from it. [ ]: non-standard residue; d: D form. The star is where a group is joined. DOTA = O=C(O)CN1CCN(CC(=O)O)CCN(CC(=O)*)CCN(CC(=O)O)CC1; NMeF = CN[C@@H](Cc1ccccc1)C(=O)O; NMeNle = CCCC[C@H](NC)C(=O)O; Sar = CNCC(=O)O

With `CCCC[C@@H](C(=O)N[C@@H](CC(=O)O)C(=O)N(C)[C@@H](Cc1ccccc1)C(N)=O)N(C)C(=O)[C@H](Cc1c[nH]c2ccccc12)NC(=O)CN(C)C(=O)[C@H](Cc1ccc(O)cc1)NC(=O)[C@H](C)NC(=O)[C@@H](CCC(=O)O)NC(=O)[C@@H](CCC(=O)O)NC(=O)[C@@H](CCC(=O)O)NC(=O)[C@@H](C)NC(=O)[C@@H](CCC(=O)O)NC(=O)[C@@H](CCC(=O)O)NC(=O)CN1CCN(CC(=O)O)CCN(CC(=O)O)CCN(CC(=O)O)CC1` [[^68Ga]Ga-DOTA-GA11, metal not drawn] ({DOTA}-[dE][dE][dA][dE][dE][dE]AY[Sar]W[NMeNle]D[NMeF]-NH2), the “metabolites in kidney homogenates” value in data set [1] was “no observable metabolites detected”. The “metabolites in liver homogenates” value in data set [1] was “no observable metabolites detected”. This molecule registered a logD in data set [2] of -3.56 ± 0.01. In addition, the tissue to tissue ratio at 1 h in data set [3] came to 14.4 ± 2.23. The SUV at 1 h in data set [3] came to 0.39 SUV. The SUV at 2 h in data set [3] is 0.34 SUV. Moreover, the tissue uptake at 1 h amounted to 2.07 ± 0.15 %ID/g in data set [4] (setting [5]); 5.6 ± 1.16 %ID/g in data set [4] (setting [6]); 0.46 ± 0.08 %ID/g in data set [4] (Uptake in Organs: Blood); 0.27 ± 0.08 %ID/g in data set [4] (Uptake in Organs: Heart); 7.38 ± 1.54 %ID/g in data set [4] (Uptake in Organs: Kidneys); 0.29 ± 0.01 %ID/g in data set [4] (Uptake in Organs: Liver). The tissue uptake at 1 h in data set [4] (Uptake in Organs: Lungs) is 0.59 ± 0.02 %ID/g; in data set [4] (Uptake in Organs: Muscle), 0.09 ± 0.02 %ID/g; in data set [4] (Uptake in Organs: Spleen), 0.34 ± 0.08 %ID/g; in data set [4] (Uptake in Organs: Stomach), 1.04 ± 0.06 %ID/g. Moreover, in data set [4] (Uptake in A431-CCK2R Tumors), the tissue uptake at 2.5 h is 5.42 ± 0.7 %ID/g.
`CCCC[C@@H](C(=O)N[C@@H](CC(=O)O)C(=O)N[C@@H](Cc1ccccc1)C(N)=O)N(C)C(=O)[C@H](Cc1c[nH]c2ccccc12)NC(=O)CN(C)C(=O)[C@H](Cc1ccc(O)cc1)NC(=O)[C@H](C)NC(=O)[C@@H](CCC(=O)O)NC(=O)[C@@H](CCC(=O)O)NC(=O)[C@@H](CCC(=O)O)NC(=O)[C@@H](C)NC(=O)[C@@H](CCC(=O)O)NC(=O)[C@@H](CCC(=O)O)NC(=O)CN1CCN(CC(=O)O)CCN(CC(=O)O)CCN(CC(=O)O)CC1` [[^68Ga]Ga-DOTA-GA12, metal not drawn] ({DOTA}-[dE][dE][dA][dE][dE][dE]AY[Sar]W[NMeNle]DF-NH2): in data set [1] (mouse, tissue homogenate), the “Half-life (t1/2) in Kidney Homogenate” value was found to be 46.33 min. In addition, the “Half-life (t1/2) in Liver Homogenate” value in data set [1] (mouse, tissue homogenate) turned out to be 64.28 min. For the same molecule, the half-life in data set [1] (mouse, tissue homogenate, Half-life (t1/2) in Kidney Homogenate) was 46.3 min; in data set [1] (mouse, tissue homogenate, Half-life (t1/2) in Liver Homogenate) it was 64.3 min. For the same molecule, the logD in data set [2] is -4.06 ± 0.14. Besides, the tissue to tissue ratio at 1 h in data set [3] was 24.9 ± 4.57. Further, in data set [3], the SUV at 1 h was determined as 0.5 SUV. Further, the SUV at 2 h in data set [3] was determined as 0.45 SUV. The tissue uptake at 1 h in data set [4] (setting [5]) amounted to 2.53 ± 0.11 %ID/g; in data set [4] (setting [6]), 6.7 ± 0.69 %ID/g; in data set [4] (Uptake in Organs: Blood), 0.29 ± 0.01 %ID/g; in data set [4] (Uptake in Organs: Heart), 0.14 ± 0.01 %ID/g; in data set [4] (Uptake in Organs: Kidneys), 4.52 ± 0.38 %ID/g; in data set [4] (Uptake in Organs: Liver), 0.19 ± 0.02 %ID/g. Moreover, the tissue uptake at 1 h in data set [4] (Uptake in Organs: Lungs) was 0.34 ± 0.04 %ID/g; in data set [4] (Uptake in Organs: Muscle), 0.09 ± 0.02 %ID/g; in data set [4] (Uptake in Organs: Spleen), 0.25 ± 0.04 %ID/g; in data set [4] (Uptake in Organs: Stomach) it was 1.38 ± 0.08 %ID/g. In data set [4] (Uptake in A431-CCK2R Tumors), this molecule displayed a tissue uptake at 2.5 h of 6.81 ± 1.4 %ID/g.
